Data taken from ChEMBL document CHEMBL5724914, “Linking interpersonal differences in gut microbiota composition and drug biotransformation activity” (2024).

assay: (§1) The drug is tested on Z-028 corresponding to mouse gut metagenome with ENA study accession number: PRJEB37062 and ENA sample accession number: ERS12561827 for biotransformation under anaerobic condition. The drug concentrations were measured over 9 timepoints collected between 0 and 24 hours of incubation by liquid-chromatography-coupled mass spectrometry (LC–MS); settings: 2 µM
Further: call rule not given here.

Row | Compound | Bacterial Biotransformation
1 | C#C[C@]1(OC(C)=O)CC[C@H]2[C@@H]3CCC4=C[C@@H](OC(C)=O)CC[C@@H]4[C@H]3CC[C@@]21C [ETHYNODIOL DIACETATE] | Compound metabolized
2 | CC(C)c1c(CN(C)C(C)Cc2ccccc2)n(C)n(-c2ccccc2)c1=O (stereo not given) [FAMPROFAZONE] | Compound NOT metabolized

assay: as §1, with “WLS-052” for “Z-028”, “human” for “mouse”, “ERS12561747” for “ERS12561827”; settings: 2 µM

Row | Compound | Bacterial Biotransformation
3 | C#C[C@]1(OC(C)=O)CC[C@H]2[C@@H]3CCC4=C[C@@H](OC(C)=O)CC[C@@H]4[C@H]3CC[C@@]21C [ETHYNODIOL DIACETATE] | Compound metabolized
4 | CC(C)c1c(CN(C)C(C)Cc2ccccc2)n(C)n(-c2ccccc2)c1=O (stereo not given) [FAMPROFAZONE] | Compound metabolized

settings: human gut metagenome, 24 h, 2 µM

Row | Compound | Bacterial Biotransformation
5 | C#C[C@]1(OC(C)=O)CC[C@H]2[C@@H]3CCC4=C[C@@H](OC(C)=O)CC[C@@H]4[C@H]3CC[C@@]21C [ETHYNODIOL DIACETATE] | Compound metabolized
6 | CC(C)c1c(CN(C)C(C)Cc2ccccc2)n(C)n(-c2ccccc2)c1=O (stereo not given) [FAMPROFAZONE] | Compound metabolized

settings: human gut metagenome, 24 h, 2 µM; remark: another data set of the same source

Row | Compound | Bacterial Biotransformation
7 | C#C[C@]1(OC(C)=O)CC[C@H]2[C@@H]3CCC4=C[C@@H](OC(C)=O)CC[C@@H]4[C@H]3CC[C@@]21C [ETHYNODIOL DIACETATE] | Compound metabolized
8 | CC(C)c1c(CN(C)C(C)Cc2ccccc2)n(C)n(-c2ccccc2)c1=O (stereo not given) [FAMPROFAZONE] | Compound metabolized

settings: human gut metagenome, 24 h, 2 µM; remark: another data set of the same source

Row | Compound | Bacterial Biotransformation
9 | C#C[C@]1(OC(C)=O)CC[C@H]2[C@@H]3CCC4=C[C@@H](OC(C)=O)CC[C@@H]4[C@H]3CC[C@@]21C [ETHYNODIOL DIACETATE] | Compound metabolized
10 | CC(C)c1c(CN(C)C(C)Cc2ccccc2)n(C)n(-c2ccccc2)c1=O (stereo not given) [FAMPROFAZONE] | Compound metabolized

settings: human gut metagenome, 24 h, 2 µM; remark: another data set of the same source

Row | Compound | Bacterial Biotransformation
11 | C#C[C@]1(OC(C)=O)CC[C@H]2[C@@H]3CCC4=C[C@@H](OC(C)=O)CC[C@@H]4[C@H]3CC[C@@]21C [ETHYNODIOL DIACETATE] | Compound metabolized
12 | CC(C)c1c(CN(C)C(C)Cc2ccccc2)n(C)n(-c2ccccc2)c1=O (stereo not given) [FAMPROFAZONE] | Compound metabolized

assay: as §1, with “Z-022” for “Z-028”, “ERS12561821” for “ERS12561827”; settings: 2 µM

Row | Compound | Bacterial Biotransformation
13 | C#C[C@]1(OC(C)=O)CC[C@H]2[C@@H]3CCC4=C[C@@H](OC(C)=O)CC[C@@H]4[C@H]3CC[C@@]21C [ETHYNODIOL DIACETATE] | Compound metabolized
14 | CC(C)c1c(CN(C)C(C)Cc2ccccc2)n(C)n(-c2ccccc2)c1=O (stereo not given) [FAMPROFAZONE] | Compound metabolized

settings: human gut metagenome, 24 h, 2 µM; remark: another data set of the same source

Row | Compound | Bacterial Biotransformation
15 | C#C[C@]1(OC(C)=O)CC[C@H]2[C@@H]3CCC4=C[C@@H](OC(C)=O)CC[C@@H]4[C@H]3CC[C@@]21C [ETHYNODIOL DIACETATE] | Compound metabolized
16 | CC(C)c1c(CN(C)C(C)Cc2ccccc2)n(C)n(-c2ccccc2)c1=O (stereo not given) [FAMPROFAZONE] | Compound metabolized

settings: human gut metagenome, 24 h, 2 µM; remark: another data set of the same source

Row | Compound | Bacterial Biotransformation
17 | C#C[C@]1(OC(C)=O)CC[C@H]2[C@@H]3CCC4=C[C@@H](OC(C)=O)CC[C@@H]4[C@H]3CC[C@@]21C [ETHYNODIOL DIACETATE] | Compound metabolized
18 | CC(C)c1c(CN(C)C(C)Cc2ccccc2)n(C)n(-c2ccccc2)c1=O (stereo not given) [FAMPROFAZONE] | Compound metabolized

assay: as §1, with “Z-020” for “Z-028”, “rabbit” for “mouse”, “ERS12561819” for “ERS12561827”; settings: 2 µM

Row | Compound | Bacterial Biotransformation
19 | C#C[C@]1(OC(C)=O)CC[C@H]2[C@@H]3CCC4=C[C@@H](OC(C)=O)CC[C@@H]4[C@H]3CC[C@@]21C [ETHYNODIOL DIACETATE] | Compound metabolized
20 | CC(C)c1c(CN(C)C(C)Cc2ccccc2)n(C)n(-c2ccccc2)c1=O (stereo not given) [FAMPROFAZONE] | Compound NOT metabolized

assay: as §1, with “WLS-240” for “Z-028”, “human” for “mouse”, “ERS12561773” for “ERS12561827”; settings: 2 µM

Row | Compound | Bacterial Biotransformation
21 | C#C[C@]1(OC(C)=O)CC[C@H]2[C@@H]3CCC4=C[C@@H](OC(C)=O)CC[C@@H]4[C@H]3CC[C@@]21C [ETHYNODIOL DIACETATE] | Compound metabolized
22 | CC(C)c1c(CN(C)C(C)Cc2ccccc2)n(C)n(-c2ccccc2)c1=O (stereo not given) [FAMPROFAZONE] | Compound metabolized

settings: human gut metagenome, 24 h, 2 µM; remark: another data set of the same source

Row | Compound | Bacterial Biotransformation
23 | C#C[C@]1(OC(C)=O)CC[C@H]2[C@@H]3CCC4=C[C@@H](OC(C)=O)CC[C@@H]4[C@H]3CC[C@@]21C [ETHYNODIOL DIACETATE] | Compound metabolized
24 | CC(C)c1c(CN(C)C(C)Cc2ccccc2)n(C)n(-c2ccccc2)c1=O (stereo not given) [FAMPROFAZONE] | Compound metabolized

settings: human gut metagenome, 24 h, 2 µM; remark: another data set of the same source

Row | Compound | Bacterial Biotransformation
25 | C#C[C@]1(OC(C)=O)CC[C@H]2[C@@H]3CCC4=C[C@@H](OC(C)=O)CC[C@@H]4[C@H]3CC[C@@]21C [ETHYNODIOL DIACETATE] | Compound metabolized
26 | CC(C)c1c(CN(C)C(C)Cc2ccccc2)n(C)n(-c2ccccc2)c1=O (stereo not given) [FAMPROFAZONE] | Compound metabolized

assay: as §1, with “WLS-220” for “Z-028”, “human” for “mouse”, “ERS12561769” for “ERS12561827”; settings: 2 µM

Row | Compound | Bacterial Biotransformation
27 | C#C[C@]1(OC(C)=O)CC[C@H]2[C@@H]3CCC4=C[C@@H](OC(C)=O)CC[C@@H]4[C@H]3CC[C@@]21C [ETHYNODIOL DIACETATE] | Compound metabolized
28 | CC(C)c1c(CN(C)C(C)Cc2ccccc2)n(C)n(-c2ccccc2)c1=O (stereo not given) [FAMPROFAZONE] | Compound metabolized

settings: human gut metagenome, 24 h, 2 µM; remark: another data set of the same source

Row | Compound | Bacterial Biotransformation
29 | C#C[C@]1(OC(C)=O)CC[C@H]2[C@@H]3CCC4=C[C@@H](OC(C)=O)CC[C@@H]4[C@H]3CC[C@@]21C [ETHYNODIOL DIACETATE] | Compound metabolized
30 | CC(C)c1c(CN(C)C(C)Cc2ccccc2)n(C)n(-c2ccccc2)c1=O (stereo not given) [FAMPROFAZONE] | Compound metabolized

assay: as §1, with “Z-029” for “Z-028”, “rat” for “mouse”, “ERS12561828” for “ERS12561827”; settings: 2 µM

Row | Compound | Bacterial Biotransformation
31 | C#C[C@]1(OC(C)=O)CC[C@H]2[C@@H]3CCC4=C[C@@H](OC(C)=O)CC[C@@H]4[C@H]3CC[C@@]21C [ETHYNODIOL DIACETATE] | Compound NOT metabolized
32 | CC(C)c1c(CN(C)C(C)Cc2ccccc2)n(C)n(-c2ccccc2)c1=O (stereo not given) [FAMPROFAZONE] | Compound NOT metabolized

assay: as §1, with “WLS-170” for “Z-028”, “human” for “mouse”, “ERS12561762” for “ERS12561827”; settings: 2 µM

Row | Compound | Bacterial Biotransformation
33 | C#C[C@]1(OC(C)=O)CC[C@H]2[C@@H]3CCC4=C[C@@H](OC(C)=O)CC[C@@H]4[C@H]3CC[C@@]21C [ETHYNODIOL DIACETATE] | Compound metabolized
34 | CC(C)c1c(CN(C)C(C)Cc2ccccc2)n(C)n(-c2ccccc2)c1=O (stereo not given) [FAMPROFAZONE] | Compound metabolized

settings: human gut metagenome, 24 h, 2 µM; remark: another data set of the same source

Row | Compound | Bacterial Biotransformation
35 | C#C[C@]1(OC(C)=O)CC[C@H]2[C@@H]3CCC4=C[C@@H](OC(C)=O)CC[C@@H]4[C@H]3CC[C@@]21C [ETHYNODIOL DIACETATE] | Compound metabolized
36 | CC(C)c1c(CN(C)C(C)Cc2ccccc2)n(C)n(-c2ccccc2)c1=O (stereo not given) [FAMPROFAZONE] | Compound metabolized

assay: as §1, with “Z-007” for “Z-028”, “rat” for “mouse”, “ERS12561807” for “ERS12561827”; settings: 2 µM

Row | Compound | Bacterial Biotransformation
37 | C#C[C@]1(OC(C)=O)CC[C@H]2[C@@H]3CCC4=C[C@@H](OC(C)=O)CC[C@@H]4[C@H]3CC[C@@]21C [ETHYNODIOL DIACETATE] | Compound metabolized
38 | CC(C)c1c(CN(C)C(C)Cc2ccccc2)n(C)n(-c2ccccc2)c1=O (stereo not given) [FAMPROFAZONE] | Compound metabolized

assay: as §1, with “WLS-077” for “Z-028”, “human” for “mouse”, “ERS12561750” for “ERS12561827”; settings: 2 µM

Row | Compound | Bacterial Biotransformation
39 | C#C[C@]1(OC(C)=O)CC[C@H]2[C@@H]3CCC4=C[C@@H](OC(C)=O)CC[C@@H]4[C@H]3CC[C@@]21C [ETHYNODIOL DIACETATE] | Compound metabolized
40 | CC(C)c1c(CN(C)C(C)Cc2ccccc2)n(C)n(-c2ccccc2)c1=O (stereo not given) [FAMPROFAZONE] | Compound metabolized
